Source: ChEMBL document CHEMBL1201862, “PubChem BioAssay data set” (2004)
Calls of active or inactive are those of the source.

Key:
[1] = target: T1, Zinc finger protein mex-5 (Caenorhabditis elegans, UniProt Q9XUB2); experiment: potency of MEX-5 RNA-binding blockers – biochemical, C. elegans, fluorescence polarization, dose response (AID 1960)
T1 sequence (Q9XUB2 whole entry): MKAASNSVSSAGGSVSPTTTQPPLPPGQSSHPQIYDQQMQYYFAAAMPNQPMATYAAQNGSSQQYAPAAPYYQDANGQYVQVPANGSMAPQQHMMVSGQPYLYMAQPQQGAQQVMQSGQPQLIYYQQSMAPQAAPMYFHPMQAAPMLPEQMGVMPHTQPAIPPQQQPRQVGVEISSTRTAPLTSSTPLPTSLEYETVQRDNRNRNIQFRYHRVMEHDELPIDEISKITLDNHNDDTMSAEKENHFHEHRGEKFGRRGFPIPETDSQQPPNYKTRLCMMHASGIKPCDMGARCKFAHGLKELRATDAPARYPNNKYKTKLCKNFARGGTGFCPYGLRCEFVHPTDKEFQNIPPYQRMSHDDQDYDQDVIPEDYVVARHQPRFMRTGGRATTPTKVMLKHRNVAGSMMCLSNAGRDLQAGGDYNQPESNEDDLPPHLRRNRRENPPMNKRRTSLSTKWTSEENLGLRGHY

Troponin, cardiac muscle [2] = target: T2, Troponin, cardiac muscle (Homo sapiens, UniProt P19429+P45379+P63316); experiment: compounds desensitizing RTF to calcium – biochemical, fluorescence, cardiac regulated thin filaments, triplicate IC50, dose response (AID 504742); assay type: protein-complex assay
[3] = target: 1-phosphatidylinositol 4,5-bisphosphate phosphodiesterase gamma-1 (Homo sapiens, UniProt P19174); experiment: Counterscreen for inhibitors of phospholipase C isozymes (PLC-B3): Fluorescence-based biochemical high throughput dose response assay to identify inhibitors of phospholipase C isozymes (PLC-gamma1).
Sequence of 1-phosphatidylinositol 4,5-bisphosphate phosphodiesterase gamma-1 (P19174 whole entry): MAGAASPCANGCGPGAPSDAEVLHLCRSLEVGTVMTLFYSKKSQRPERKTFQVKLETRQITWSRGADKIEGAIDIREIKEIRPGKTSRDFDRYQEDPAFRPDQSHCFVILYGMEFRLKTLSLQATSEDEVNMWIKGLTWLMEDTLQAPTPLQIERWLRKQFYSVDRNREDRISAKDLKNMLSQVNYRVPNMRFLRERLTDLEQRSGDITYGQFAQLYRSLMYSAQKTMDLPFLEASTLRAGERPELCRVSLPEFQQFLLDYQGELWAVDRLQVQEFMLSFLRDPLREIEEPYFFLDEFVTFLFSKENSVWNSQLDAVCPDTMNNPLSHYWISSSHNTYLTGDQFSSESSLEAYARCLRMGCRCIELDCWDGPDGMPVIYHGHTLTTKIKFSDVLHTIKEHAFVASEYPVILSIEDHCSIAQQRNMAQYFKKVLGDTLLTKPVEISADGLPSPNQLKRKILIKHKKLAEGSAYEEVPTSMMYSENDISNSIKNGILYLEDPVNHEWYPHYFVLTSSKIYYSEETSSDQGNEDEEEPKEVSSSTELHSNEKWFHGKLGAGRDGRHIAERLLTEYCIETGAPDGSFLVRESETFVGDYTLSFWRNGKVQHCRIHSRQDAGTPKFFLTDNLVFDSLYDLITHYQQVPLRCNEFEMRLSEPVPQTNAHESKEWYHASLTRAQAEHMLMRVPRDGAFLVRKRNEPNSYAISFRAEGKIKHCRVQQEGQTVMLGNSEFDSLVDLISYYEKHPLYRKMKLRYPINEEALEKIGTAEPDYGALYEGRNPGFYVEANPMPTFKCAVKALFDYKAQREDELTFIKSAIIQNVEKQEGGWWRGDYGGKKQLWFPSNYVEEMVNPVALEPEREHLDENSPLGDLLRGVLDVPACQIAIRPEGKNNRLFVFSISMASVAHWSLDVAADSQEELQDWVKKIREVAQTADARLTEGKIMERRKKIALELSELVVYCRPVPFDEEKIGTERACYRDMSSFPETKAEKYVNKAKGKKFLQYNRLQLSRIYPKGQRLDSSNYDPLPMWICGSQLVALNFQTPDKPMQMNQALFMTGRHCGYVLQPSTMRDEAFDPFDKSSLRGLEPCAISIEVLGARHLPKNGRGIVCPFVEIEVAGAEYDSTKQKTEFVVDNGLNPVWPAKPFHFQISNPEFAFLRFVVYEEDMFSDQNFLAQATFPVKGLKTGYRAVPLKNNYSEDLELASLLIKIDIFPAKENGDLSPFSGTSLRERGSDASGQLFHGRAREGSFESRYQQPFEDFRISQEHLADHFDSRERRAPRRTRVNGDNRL

[4] = inhibition of ADAM10 peptide cleavage – biochemical, FRET peptide substrate, recombinant human ADAM10, selectivity assay for ADAM17 exosite inhibitor project, dose response (AID 743259);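 also: ADAM10 enzyme cleaving a FRET peptide substrate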
[5] = target: 1-phosphatidylinositol 4,5-bisphosphate phosphodiesterase beta-3 (Homo sapiens, UniProt Q01970); experiment: Fluorescence-based biochemical high throughput dose response assay to identify inhibitors of phospholipase C isozymes (PLC-B3).
Sequence of 1-phosphatidylinositol 4,5-bisphosphate phosphodiesterase beta-3 (Q01970 whole entry, the tested form may be a part): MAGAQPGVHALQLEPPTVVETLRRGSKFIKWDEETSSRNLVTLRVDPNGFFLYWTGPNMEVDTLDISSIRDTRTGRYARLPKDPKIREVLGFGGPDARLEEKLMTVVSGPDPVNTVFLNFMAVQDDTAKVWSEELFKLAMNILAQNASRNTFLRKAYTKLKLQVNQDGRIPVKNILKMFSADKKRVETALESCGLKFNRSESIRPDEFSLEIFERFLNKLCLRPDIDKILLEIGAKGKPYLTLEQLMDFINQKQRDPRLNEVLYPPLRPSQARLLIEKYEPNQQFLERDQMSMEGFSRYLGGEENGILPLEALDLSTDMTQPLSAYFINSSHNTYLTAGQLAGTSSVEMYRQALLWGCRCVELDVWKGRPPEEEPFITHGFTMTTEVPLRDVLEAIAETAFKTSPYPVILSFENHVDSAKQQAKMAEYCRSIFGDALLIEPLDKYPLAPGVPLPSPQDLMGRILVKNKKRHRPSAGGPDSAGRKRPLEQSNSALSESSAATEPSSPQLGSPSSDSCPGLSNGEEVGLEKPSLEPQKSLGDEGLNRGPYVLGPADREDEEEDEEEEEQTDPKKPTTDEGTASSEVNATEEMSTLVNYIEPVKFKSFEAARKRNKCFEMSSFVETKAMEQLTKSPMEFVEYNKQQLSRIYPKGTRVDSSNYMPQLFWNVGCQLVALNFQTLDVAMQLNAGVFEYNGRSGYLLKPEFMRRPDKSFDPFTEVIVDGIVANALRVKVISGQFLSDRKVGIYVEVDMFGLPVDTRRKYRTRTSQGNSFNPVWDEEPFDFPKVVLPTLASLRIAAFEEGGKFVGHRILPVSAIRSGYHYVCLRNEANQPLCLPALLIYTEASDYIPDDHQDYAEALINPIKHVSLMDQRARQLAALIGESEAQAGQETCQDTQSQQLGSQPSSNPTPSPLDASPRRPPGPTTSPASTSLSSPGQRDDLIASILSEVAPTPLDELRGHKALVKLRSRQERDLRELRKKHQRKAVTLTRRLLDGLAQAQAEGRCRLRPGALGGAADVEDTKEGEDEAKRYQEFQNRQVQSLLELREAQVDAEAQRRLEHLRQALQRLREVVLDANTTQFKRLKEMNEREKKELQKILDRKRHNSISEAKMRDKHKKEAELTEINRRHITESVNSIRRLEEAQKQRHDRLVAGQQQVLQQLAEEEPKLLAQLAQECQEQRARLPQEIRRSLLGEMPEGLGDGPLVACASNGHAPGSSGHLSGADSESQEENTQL

[6] = target: T3, RNA-binding protein pos-1 (Caenorhabditis elegans, UniProt G5EF15); experiment: disruptors of C. elegans POS-1 RNA interaction – biochemical, fluorescence polarization, dose response (AID 1964);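 also: purified POS-1 fused to maltose binding protein made in E. coli; potency of compounds blocking POS-1 binding to fluorescent RNA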
T3 sequence (G5EF15 whole entry): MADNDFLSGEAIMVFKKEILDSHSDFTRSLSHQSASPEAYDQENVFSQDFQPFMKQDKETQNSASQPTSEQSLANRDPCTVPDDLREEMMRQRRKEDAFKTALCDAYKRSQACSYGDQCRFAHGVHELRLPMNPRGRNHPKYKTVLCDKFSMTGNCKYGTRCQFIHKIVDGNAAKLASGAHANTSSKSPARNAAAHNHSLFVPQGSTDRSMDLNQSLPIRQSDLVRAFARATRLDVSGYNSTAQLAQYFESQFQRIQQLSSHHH

[7] = target: Disintegrin and metalloproteinase domain-containing protein 17 (Homo sapiens, UniProt P78536); experiment: exosite inhibitors of ADAM17, dose response, biochemical (AID 743260)
Sequence of Disintegrin and metalloproteinase domain-containing protein 17 (P78536 whole entry, the tested form may be a part): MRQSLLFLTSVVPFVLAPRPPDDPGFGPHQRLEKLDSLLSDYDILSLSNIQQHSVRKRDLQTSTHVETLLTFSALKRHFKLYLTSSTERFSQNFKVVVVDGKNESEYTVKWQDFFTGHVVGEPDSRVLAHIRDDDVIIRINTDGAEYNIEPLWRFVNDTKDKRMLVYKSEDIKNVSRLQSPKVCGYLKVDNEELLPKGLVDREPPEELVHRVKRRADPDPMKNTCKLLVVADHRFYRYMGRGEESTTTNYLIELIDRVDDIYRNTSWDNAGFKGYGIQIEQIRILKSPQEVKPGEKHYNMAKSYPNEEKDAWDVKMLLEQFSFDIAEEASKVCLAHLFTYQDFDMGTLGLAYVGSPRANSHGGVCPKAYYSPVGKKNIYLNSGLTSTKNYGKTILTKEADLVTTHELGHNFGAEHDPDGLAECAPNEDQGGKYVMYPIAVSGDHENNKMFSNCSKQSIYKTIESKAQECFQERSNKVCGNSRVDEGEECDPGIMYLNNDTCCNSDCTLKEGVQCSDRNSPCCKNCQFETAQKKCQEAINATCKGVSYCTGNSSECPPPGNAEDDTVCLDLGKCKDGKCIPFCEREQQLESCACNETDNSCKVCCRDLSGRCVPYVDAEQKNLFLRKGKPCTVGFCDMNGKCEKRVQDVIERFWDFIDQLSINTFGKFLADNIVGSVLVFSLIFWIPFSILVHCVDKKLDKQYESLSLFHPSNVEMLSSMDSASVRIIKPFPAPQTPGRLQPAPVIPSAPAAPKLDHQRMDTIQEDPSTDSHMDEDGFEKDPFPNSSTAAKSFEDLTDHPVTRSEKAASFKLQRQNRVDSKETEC

[8] = target: Tyrosyl-DNA phosphodiesterase 2 (Homo sapiens, UniProt O95551); experiment: potency against TDP2 phosphodiesterase activity – biochemical, epi absorbance, IC50, dose response (AID 743297)
Sequence of Tyrosyl-DNA phosphodiesterase 2 (O95551 whole entry): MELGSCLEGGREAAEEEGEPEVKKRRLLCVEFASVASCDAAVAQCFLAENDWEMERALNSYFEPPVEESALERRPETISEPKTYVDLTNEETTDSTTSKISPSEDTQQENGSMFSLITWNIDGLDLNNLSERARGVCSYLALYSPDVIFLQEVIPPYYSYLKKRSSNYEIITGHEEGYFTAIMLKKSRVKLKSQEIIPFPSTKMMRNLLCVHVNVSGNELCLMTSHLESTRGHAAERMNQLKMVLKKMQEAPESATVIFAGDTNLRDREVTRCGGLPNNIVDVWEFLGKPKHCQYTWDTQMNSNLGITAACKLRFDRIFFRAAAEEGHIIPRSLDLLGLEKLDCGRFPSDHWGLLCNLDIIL

[9] = target: Glutathione S-transferase omega-1 (Homo sapiens, UniProt P78417); experiment: IC50 of human GSTO1 blockade by gel ABPP – biochemical, SE-Rh probe, in-gel fluorescence, powder samples, set 2, late-stage follow-up (AID 463142); assay type: functional
Sequence of Glutathione S-transferase omega-1 (P78417 whole entry): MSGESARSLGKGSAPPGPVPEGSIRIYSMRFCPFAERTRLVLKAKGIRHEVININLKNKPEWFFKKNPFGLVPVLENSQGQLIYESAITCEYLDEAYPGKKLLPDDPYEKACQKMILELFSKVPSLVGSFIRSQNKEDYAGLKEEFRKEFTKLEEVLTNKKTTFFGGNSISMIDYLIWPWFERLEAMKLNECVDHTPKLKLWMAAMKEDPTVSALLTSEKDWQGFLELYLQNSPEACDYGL

[10] = target: Intestinal-type alkaline phosphatase (Mus musculus, UniProt P24822); experiment: PubChem AID 488785; assay type: functional
[11] = target: Alkaline phosphatase, placental type (Homo sapiens, UniProt P05187); experiment: human placental alkaline phosphatase inhibition – biochemical, luminescence, confirmation (AID 1512); assay type: functional
Sequence of Alkaline phosphatase, placental type (P05187 whole entry): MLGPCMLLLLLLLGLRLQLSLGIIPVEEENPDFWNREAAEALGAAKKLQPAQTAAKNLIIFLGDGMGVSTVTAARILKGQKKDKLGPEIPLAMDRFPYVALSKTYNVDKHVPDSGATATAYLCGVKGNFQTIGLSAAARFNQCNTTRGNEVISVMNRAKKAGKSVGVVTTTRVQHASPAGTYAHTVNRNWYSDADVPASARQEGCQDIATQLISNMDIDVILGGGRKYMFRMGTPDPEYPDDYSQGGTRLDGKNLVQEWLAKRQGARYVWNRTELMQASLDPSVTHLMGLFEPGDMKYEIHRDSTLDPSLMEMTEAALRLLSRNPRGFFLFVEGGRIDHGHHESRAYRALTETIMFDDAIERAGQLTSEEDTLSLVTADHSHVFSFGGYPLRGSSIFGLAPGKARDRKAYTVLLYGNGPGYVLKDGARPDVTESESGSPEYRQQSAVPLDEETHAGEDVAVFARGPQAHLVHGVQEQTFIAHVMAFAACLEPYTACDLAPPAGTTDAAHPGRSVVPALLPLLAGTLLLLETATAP

[12] = target: Intestinal-type alkaline phosphatase (Homo sapiens, UniProt P09923); experiment: inhibition of human intestinal alkaline phosphatase – biochemical, dose response (AID 488876); assay type: functional
Sequence of Intestinal-type alkaline phosphatase (Homo sapiens, UniProt P09923) (P09923 whole entry): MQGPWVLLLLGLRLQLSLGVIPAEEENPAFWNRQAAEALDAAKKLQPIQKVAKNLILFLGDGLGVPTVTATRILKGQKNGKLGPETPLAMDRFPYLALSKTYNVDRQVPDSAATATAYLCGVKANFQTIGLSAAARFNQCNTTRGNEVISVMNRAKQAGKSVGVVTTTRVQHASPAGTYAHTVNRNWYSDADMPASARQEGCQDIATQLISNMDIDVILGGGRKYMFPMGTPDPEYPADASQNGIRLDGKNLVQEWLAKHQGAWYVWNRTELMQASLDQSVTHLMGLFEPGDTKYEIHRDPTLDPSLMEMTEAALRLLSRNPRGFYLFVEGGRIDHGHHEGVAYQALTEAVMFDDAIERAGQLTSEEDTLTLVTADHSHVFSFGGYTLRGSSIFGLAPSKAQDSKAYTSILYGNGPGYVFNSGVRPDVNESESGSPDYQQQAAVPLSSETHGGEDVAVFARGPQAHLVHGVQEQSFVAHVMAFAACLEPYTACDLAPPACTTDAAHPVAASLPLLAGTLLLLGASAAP

BJ [13] = experiment: growth inhibition of engineered Ras-driven BJ cells – cell-based, alamar blue fluorescence, cherrypicked samples, dose response (AID 2631); assay type: functional; settings: Homo sapiens;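 also: confirmatory dose-response assay in RAS-dependent BJ fibroblasts engineered with TERT, LT and ST, with cytotoxicity read by fluorescence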
[14] = target: T4, Ubiquitin-conjugating enzyme E2 N (Homo sapiens, UniProt P61088); assay type: functional
T4 sequence (P61088 whole entry): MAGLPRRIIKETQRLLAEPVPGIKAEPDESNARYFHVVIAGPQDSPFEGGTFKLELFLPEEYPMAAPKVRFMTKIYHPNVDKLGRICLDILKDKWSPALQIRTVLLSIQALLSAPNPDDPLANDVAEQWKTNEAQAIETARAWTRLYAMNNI

BJ [15] = experiment: BJ-TERT-LT-ST fibroblast viability loss – cell-based, RAS-independent, luminescence, dose response (AID 1935); assay type: functional; settings: Homo sapiens;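 also: BJ fibroblasts immortalized with TERT plus LT and ST oncogenes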
BJ [16] = experiment: cells; assay type: functional, cell-based; settings: Homo sapiens
Bcl-2-related protein A1 = target: T5, Bcl-2-related protein A1 (Mus musculus, UniProt Q07440); assay type: functional;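 also: confirmatory dose–response counterscreen on Bfl-1, used to check hits from a UBC13 polyubiquitin inhibitor campaign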
T5 sequence (Q07440 whole entry): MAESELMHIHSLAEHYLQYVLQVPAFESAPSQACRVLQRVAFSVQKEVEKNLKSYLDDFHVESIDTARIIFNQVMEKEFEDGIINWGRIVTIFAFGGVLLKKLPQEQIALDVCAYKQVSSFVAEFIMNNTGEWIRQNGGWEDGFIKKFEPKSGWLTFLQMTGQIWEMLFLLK

[17] = target: T6, Heat shock factor protein 1 (Mus musculus, UniProt P38532); experiment: decrease of HSF1-responsive luciferase luminescence – cell-based, NIH3T3, dose retest, confirmation (AID 2382); assay type: functional;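 also: NIH3T3 fibroblasts with HSF1-driven luciferase reporter stressed by proteasome inhibitor MG132; luminescence from HSF1-driven luciferase expression after 8 hours of MG132 stress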
T6 sequence (P38532 whole entry): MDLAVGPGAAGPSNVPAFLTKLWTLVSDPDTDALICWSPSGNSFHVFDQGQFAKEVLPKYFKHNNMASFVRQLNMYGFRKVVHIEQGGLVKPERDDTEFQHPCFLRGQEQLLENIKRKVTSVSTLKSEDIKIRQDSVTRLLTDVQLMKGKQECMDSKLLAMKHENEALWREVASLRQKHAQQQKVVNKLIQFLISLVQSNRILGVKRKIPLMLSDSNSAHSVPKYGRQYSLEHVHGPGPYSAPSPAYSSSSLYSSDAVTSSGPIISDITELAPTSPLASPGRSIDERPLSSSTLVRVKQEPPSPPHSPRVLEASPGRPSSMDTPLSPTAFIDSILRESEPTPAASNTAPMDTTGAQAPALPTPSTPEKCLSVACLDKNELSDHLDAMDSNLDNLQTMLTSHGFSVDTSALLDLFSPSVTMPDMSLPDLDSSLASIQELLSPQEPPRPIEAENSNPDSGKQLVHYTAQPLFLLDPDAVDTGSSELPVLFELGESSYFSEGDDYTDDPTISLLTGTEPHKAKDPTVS

[18] = target: T7, Type-1 angiotensin II receptor (Homo sapiens, UniProt P30556); experiment: agonist activity at AGTR1 – cell-based, uHTS hits, selectivity assay for APJ receptor agonist project, dose response (AID 488865); assay type: functional;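 also: beta-arrestin recruitment to AT1 measured by enzyme fragment complementation luminescence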
T7 sequence (P30556 whole entry): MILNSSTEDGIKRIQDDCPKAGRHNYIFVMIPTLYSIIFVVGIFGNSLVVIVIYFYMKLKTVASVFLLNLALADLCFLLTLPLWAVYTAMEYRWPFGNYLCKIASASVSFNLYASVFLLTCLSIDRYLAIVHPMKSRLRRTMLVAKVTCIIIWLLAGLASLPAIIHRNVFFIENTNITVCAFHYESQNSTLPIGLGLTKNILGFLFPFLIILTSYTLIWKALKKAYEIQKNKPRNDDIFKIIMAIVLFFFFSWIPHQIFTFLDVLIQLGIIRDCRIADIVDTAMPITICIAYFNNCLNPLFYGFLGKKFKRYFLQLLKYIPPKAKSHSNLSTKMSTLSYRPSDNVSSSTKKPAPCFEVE

BJ [19] = experiment: BJ-TERT fibroblast viability loss – cell-based, RAS-independent, luminescence, dose response (AID 1933); assay type: functional; settings: Homo sapiens
[20] = target: T4, Ubiquitin-conjugating enzyme E2 N; assay type: functional; remark: listed apart in the source
[21] = DRD fibroblast viability loss – cell-based, non-viral oncogenic, luminescence, dose response (AID 1934); assay type: functional; settings: Homo sapiens
INS1 = experiment: INS-1E survival protection against cytokine death – cell-based, luminescence, retest, dose response (AID 449756); assay type: functional; settings: Rattus norvegicus;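 also: cell death triggered by IL-1 beta plus TNF-alpha plus IFN-gamma mixture; protective hits raise ATP signal compared with cytokine alone wells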
Troponin, cardiac muscle [22] = target: T2, Troponin, cardiac muscle; experiment: Fluorescence-based biochemical high throughput dose response assay for activators of the calcium sensitivity of cardiac Regulated Thin Filaments (RTF). [Related pubchem assays (depositor defined):AID493008, AID493018, AID504382, AID504383]; assay type: protein-complex assay

Q: For `O=C(O)c1cc(O)c2c(c1)[C@H]([C@H]1c3cc(C(=O)O)cc(O)c3C(=O)c3c(O[C@@H]4O[C@H](CO)[C@@H](O)[C@H](O)[C@H]4O)cccc31)c1cccc(OC3O[C@H](CO)[C@@H](O)[C@H](O)[C@H]3O)c1C2=O` (some centres undefined), which EC50 [1] is on record?
A: 7.25 µM (active)

Q: What about the IC50 (Troponin, cardiac muscle [2]) of the same compound?
A: 2.72 µM (active)

Q: And the IC50 [3]?
A: 18.8 µM (inactive)

Q: And the IC50 [4]?
A: > 23.2 µM (inactive)

Q: What about the IC50 [5] of the same compound?
A: 109 µM (inactive)

Q: What about the EC50 [6] of the same compound?
A: > 300 µM (not active)

Q: And the IC50 [7]?
A: 30.4 µM (inactive)

Q: And the IC50 [8]?
A: > 128 µM (inactive)

Q: With `O=C(CCl)N(CCCCCNC(=O)C(F)(F)F)c1ccc([N+](=O)[O-])cc1` as the compound, how does the IC50 [9] read?
A: 0.034 µM (active)

Q: Which IC50 [10] does the source give for `C=C(C)c1cccc(C(C)(C)NC(=O)NC(c2ccccc2)c2ccc(OC)cc2)c1` (centres undefined) here?
A: 7.54 µM (active)

Q: What about the IC50 [11] of the same compound?
A: > 100 µM (inactive)

Q: What about the IC50 [12] of the same compound?
A: 9.59 µM (active)

Q: Which results are given for `COc1ccc(OC)c2sc(N(CCCN(C)C)C(=O)c3ccc(S(=O)(=O)N4CCc5ccccc5C4)cc3)nc12`?
A: EC50 (BJ [13]): 0.289 µM (active); IC50 [14]: 1.27 µM (active); EC50 (BJ [15]): 0.432 µM (inconclusive); EC50 (BJ [16]): 2.43 µM (active); IC50 (Bcl-2-related protein A1): 8.51 µM (active); EC50 [17]: 5.01 µM (active); EC50 [18]: > 100 µM (inactive); EC50 (BJ [19]): 0.357 µM (inconclusive); IC50 [20]: 2.47 µM (active); EC50 [21]: 1.27 µM (inconclusive); AC50 (INS1): 1.75 µM (active)

Q: For `Cc1nnc(SCC(=O)NC(C)(C)C)n1C1CCCCC1`, which EC50 (Troponin, cardiac muscle [22]) is on record?
A: > 71.5 µM (inactive)
